{"source": "the supplement of paper PMC11208160", "data": [{"assay": "recombinant UMI read abundance after kanamycin selection (control-corrected) (log10(CPM+1)); higher = more efficient recombination; extreme values may be limits of the assay; sequences stand for … in AGTGCAGAGAAAATCGGCCAGTTTTCTCTGCCTGCAGTCCGCATGCCGTGGGACCCCTTGGGTTCTAACCTGTTGCCTAGATTTATGCAGCGGACTGCCTTTCTCCCAAAGTGATAAACCGG…AGGTTGGTTTCACT; site = the 11-nt donor", "outline": "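Each donor and donor-binding-loop pair was tracked by a 12-nt UMI on a plasmid carrying a promoterless kanamycin gene. With a second plasmid supplying a fixed target and T7-inducible IS621 bridge recombinase, the pool was plated in Escherichia coli on IPTG (0.07 mM) plus kanamycin or unselected. Sequencing of recombinant UMIs across the donor–target junction gave counts expressed as log10(CPM+1) after replicate averaging and control-derived scaling.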", "values": [{"sequence": "ATAAGCCCATGGACCGGTTTTCCCGGTAATCCGTATTTGAC (site ATAAGGCCTGT)", "recombinant UMI read abundance (log10)": 0.528}, {"sequence": "ATAAGCCCATGGACCGGTTTTCCCGGTAATCCGTATTTGAC (site ATAAGTCCTGT)", "recombinant UMI read abundance (log10)": 0.889}, {"sequence": "ATAAGGCCATGGACCGGTTTTCCCGGTAATCCGTATTTGTC (site ATAAGGCCTGA)", "recombinant UMI read abundance (log10)": 1.94}, {"sequence": "ATAAGGCCATGGACCGGTTTTCCCGGTAATCCGTATTTGTC (site ATAAGGCCTGC)", "recombinant UMI read abundance (log10)": 0}, {"sequence": "ATAAGGCCATGGACCGGTTTTCCCGGTAATCCGTATTTGTC (site ATAAGGCCTGG)", "recombinant UMI read abundance (log10)": 2.46}, {"sequence": "ATAAGGCCATGGACCGGTTTTCCCGGTAATCCGTATTTGTC (site ATAAGGCCTGT)", "recombinant UMI read abundance (log10)": 0}, {"sequence": "ATAAGGTCATGGACCGGTTTTCCCGGTAATCCGTATTTGCA (site ATAAGGTCTTG)", "recombinant UMI read abundance (log10)": 2.96}, {"sequence": "ATACAAGCATGGACCGGTTTTCCCGGTAATCCGTATTTGAG (site ATACAAGCTCT)", "recombinant UMI read abundance (log10)": 2.31}, {"sequence": "ATACAAGCATGGACCGGTTTTCCCGGTAATCCGTATTTGAG (site ATCCAAGCTCT)", "recombinant UMI read abundance (log10)": 0.803}, {"sequence": "ATACAAGCATGGACCGGTTTTCCCGGTAATCCGTATTTGAG (site ATGCAAGCTCT)", "recombinant UMI read abundance (log10)": 0.923}, {"sequence": "ATACAAGCATGGACCGGTTTTCCCGGTAATCCGTATTTGAG (site ATTCAAGCTCT)", "recombinant UMI read abundance (log10)": 0.673}, {"sequence": "ATACATGCATGGACCGGTTTTCCCGGTAATCCGTATTTGCT (site ATACATGCTAG)", "recombinant UMI read abundance (log10)": 2.75}, {"sequence": "ATACGGCCATGGACCGGTTTTCCCGGTAATCCGTATTTGAC (site ATAAGGCCTGT)", "recombinant UMI read abundance (log10)": 0}, {"sequence": "ATACGGCCATGGACCGGTTTTCCCGGTAATCCGTATTTGAC (site ATACGGCCTGT)", "recombinant UMI read abundance (log10)": 0}, {"sequence": "ATACGGCCATGGACCGGTTTTCCCGGTAATCCGTATTTGAC (site ATAGGGCCTGT)", "recombinant UMI read abundance (log10)": 0}, {"sequence": "ATACGGCCATGGACCGGTTTTCCCGGTAATCCGTATTTGAC (site ATATGGCCTGT)", "recombinant UMI read abundance (log10)": 0}, {"sequence": "ATACTAACATGGACCGGTTTTCCCGGTAATCCGTATTTGGA (site ATACTAACTTC)", "recombinant UMI read abundance (log10)": 1.2}, {"sequence": "ATACTAACATGGACCGGTTTTCCCGGTAATCCGTATTTGGA (site CTACTAACTTC)", "recombinant UMI read abundance (log10)": 0.853}, {"sequence": "ATACTAACATGGACCGGTTTTCCCGGTAATCCGTATTTGGA (site GTACTAACTTC)", "recombinant UMI read abundance (log10)": 0.275}, {"sequence": "ATACTAACATGGACCGGTTTTCCCGGTAATCCGTATTTGGA (site TTACTAACTTC)", "recombinant UMI read abundance (log10)": 2.05}, {"sequence": "ATACTGGCATGGACCGGTTTTCCCGGTAATCCGTATTTGTT (site ATACTGGCTAA)", "recombinant UMI read abundance (log10)": 0.589}, {"sequence": "ATAGACTCATGGACCGGTTTTCCCGGTAATCCGTATTTGGT (site ATAGACTCTAC)", "recombinant UMI read abundance (log10)": 2.79}, {"sequence": "ATAGCATCATGGACCGGTTTTCCCGGTAATCCGTATTTGAC (site ATAGCATCTGT)", "recombinant UMI read abundance (log10)": 3.53}, {"sequence": "ATAGCATCATGGACCGGTTTTCCCGGTAATCCGTATTTGAC (site CTAGTATCTGT)", "recombinant UMI read abundance (log10)": 1.8}, {"sequence": "ATAGGAGCATGGACCGGTTTTCCCGGTAATCCGTATTTGGC (site ATAGGAGCTGC)", "recombinant UMI read abundance (log10)": 2.91}, {"sequence": "ATAGTATCATGGACCGGTTTTCCCGGTAATCCGTATTTGCG (site ACAGTATCTTG)", "recombinant UMI read abundance (log10)": 1.46}, {"sequence": "ATAGTATCATGGACCGGTTTTCCCGGTAATCCGTATTTGCG (site ATAGTATCTCG)", "recombinant UMI read abundance (log10)": 3.07}, {"sequence": "ATAGTTTCATGGACCGGTTTTCCCGGTAATCCGTATTTGAC (site ATAGTTTCTGT)", "recombinant UMI read abundance (log10)": 2.62}, {"sequence": "ATAGTTTCATGGACCGGTTTTCCCGGTAATCCGTATTTGAC (site CTAGTATCTGT)", "recombinant UMI read abundance (log10)": 2.45}, {"sequence": "ATATCGGCATGGACCGGTTTTCCCGGTAATCCGTATTTGGT (site ATATCGGCTAC)", "recombinant UMI read abundance (log10)": 0.889}, {"sequence": "ATATGACCATGGACCGGTTTTCCCGGTAATCCGTATTTGAC (site ATATGACCTGT)", "recombinant UMI read abundance (log10)": 0}, {"sequence": "ATATGATCATGGACCGGTTTTCCCGGTAATCCGTATTTGGG (site ATATGATCTCC)", "recombinant UMI read abundance (log10)": 1.26}, {"sequence": "ATATGGCCATGGACCGGTTTTCCCGGTAATCCGTATTTGAC (site ATAAGGCCTGT)", "recombinant UMI read abundance (log10)": 0}, {"sequence": "ATATGGCCATGGACCGGTTTTCCCGGTAATCCGTATTTGAC (site ATACGGCCTGT)", "recombinant UMI read abundance (log10)": 0}, {"sequence": "ATATGGCCATGGACCGGTTTTCCCGGTAATCCGTATTTGAC (site ATAGGGCCTGT)", "recombinant UMI read abundance (log10)": 0}, {"sequence": "ATATGGCCATGGACCGGTTTTCCCGGTAATCCGTATTTGAC (site ATATGGCCTGT)", "recombinant UMI read abundance (log10)": 0}, {"sequence": "ATATTCGCATGGACCGGTTTTCCCGGTAATCCGTATTTGCT (site ATATTCGCTAG)", "recombinant UMI read abundance (log10)": 2.58}]}]}
